Test results reported in PubChem BioAssay (NCI).
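Grown in 96-well plates, cells were treated for 48 hours with each compound at five concentrations. Insufficient inhibition: endpoint recorded as highest concentration tested. TGI denotes the concentration required for complete inhibition of growth.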 Where a SMILES comes first, the peptide text is derived from it.

Experiments:
Experiment in all cases: DTP human tumour cell line panel, 48 h
HS 578T breast = tested on: HS 578T breast
HOP-62 NSCLC = tested on: HOP-62 NSCLC
MDA-MB-435 = tested on: MDA-MB-435
KM12 colon = tested on: KM12 colon
T-47D breast = tested on: T-47D breast
EKVX NSCLC = tested on: EKVX NSCLC
HCC-2998 colon = tested on: HCC-2998 colon
HCT-15 colon = tested on: HCT-15 colon
ACHN renal = tested on: ACHN renal
TK-10 renal = tested on: TK-10 renal
MALME-3M melanoma = tested on: MALME-3M melanoma
HL-60(TB) leukemia = tested on: HL-60(TB) leukemia
MDA-MB-231 breast = tested on: MDA-MB-231 breast
K-562 leukemia = tested on: K-562 leukemia
OVCAR-3 ovarian = tested on: OVCAR-3 ovarian
NCI/ADR-RES ovarian = tested on: NCI/ADR-RES ovarian
SNB-19 CNS = tested on: SNB-19 CNS
BT-549 breast = tested on: BT-549 breast
RPMI-8226 leukemia = tested on: RPMI-8226 leukemia
OVCAR-4 ovarian = tested on: OVCAR-4 ovarian

| Compound | TGI (HS 578T breast) | TGI (HOP-62 NSCLC) | TGI (MDA-MB-435) | TGI (KM12 colon) | TGI (T-47D breast) | TGI (EKVX NSCLC) | TGI (HCC-2998 colon) | TGI (HCT-15 colon) | TGI (ACHN renal) | TGI (TK-10 renal) | TGI (MALME-3M melanoma) | TGI (HL-60(TB) leukemia) | TGI (MDA-MB-231 breast) | TGI (K-562 leukemia) | TGI (OVCAR-3 ovarian) | TGI (NCI/ADR-RES ovarian) | TGI (SNB-19 CNS) | TGI (BT-549 breast) | TGI (RPMI-8226 leukemia) | TGI (OVCAR-4 ovarian) |
| --- | --- | --- | --- | --- | --- | --- | --- | --- | --- | --- | --- | --- | --- | --- | --- | --- | --- | --- | --- | --- |
| O=c1c2cc(Cl)ccc2[nH]c2cc(O)cc(O)c12 | > 10 µM | > 10 µM | > 10 µM | > 10 µM | > 10 µM | > 10 µM | > 10 µM | > 10 µM | > 10 µM | > 10 µM | > 10 µM | > 10 µM | > 10 µM | > 10 µM | > 10 µM | > 10 µM | > 10 µM | > 10 µM | > 10 µM | > 10 µM |
| O=C(NC(Nc1ccc(F)cc1)(C(F)(F)F)C(F)(F)F)C(C(F)(F)F)C(F)(F)F | > 90.5 µM | > 100 µM | > 100 µM | > 100 µM | > 100 µM | > 100 µM | > 100 µM | > 100 µM | > 100 µM | > 100 µM | > 100 µM | 15.1 µM | > 100 µM | > 100 µM | > 100 µM | > 100 µM | > 100 µM | > 100 µM | 60 µM | > 43.9 µM |
| CCCCCCCCCCCCOc1ccc(/C=C/C2=[N+](CCCl)CCO2)cc1 | > 100 µM | > 100 µM | > 100 µM | > 100 µM | > 100 µM | > 100 µM | > 100 µM | > 100 µM | > 100 µM | > 100 µM | > 100 µM | 28.8 µM | > 100 µM | > 100 µM | 37.9 µM | > 100 µM | > 100 µM | > 100 µM | > 100 µM | > 100 µM |
| CC(C)(C)OC(=O)C1=C2C=C(O)C=CC2(C)N(Cc2ccccc2)C1=N (centres undefined) | > 91.6 µM | 30.7 µM | 21.5 µM | 23.1 µM | 10.2 µM | 11.5 µM | 29.3 µM | 14.9 µM | 5.56 µM | 10.2 µM | 10.9 µM | 6.35 µM | 21.6 µM | > 32.9 µM | 13.8 µM | > 82.8 µM | 33.8 µM | 4.58 µM | > 27.1 µM | 19.1 µM |
| O=C1NC(=O)/C(=C/c2ccc(S(=O)(=O)N/N=C\C(O)C(O)C(O)C(O)CO)cc2)N1 (centres undefined) | > 100 µM | > 100 µM | > 100 µM | > 100 µM | > 100 µM | > 100 µM | > 100 µM | > 100 µM | > 100 µM | > 100 µM | > 100 µM | > 100 µM | > 100 µM | > 100 µM | > 100 µM | > 100 µM | > 100 µM | > 100 µM | > 100 µM | > 100 µM |
| O=C(O)CN1CCN(CC(=O)N2CCN(C(=O)OCc3ccccc3)CC2)CCN(CC(=O)O)CCN(CC(=O)N2CCN(C(=O)OCc3ccccc3)CC2)CC1 | > 100 µM | > 100 µM | > 100 µM | > 100 µM | > 100 µM | > 100 µM | > 100 µM | > 100 µM | > 100 µM | > 100 µM | > 100 µM | > 100 µM | > 100 µM | > 100 µM | > 100 µM | > 100 µM | > 100 µM | > 100 µM | > 100 µM | > 100 µM |
| CCN(CC)/[N+]([O-])=N/OCOC(C)=O | > 100 µM | > 100 µM | > 100 µM | > 100 µM | > 100 µM | > 100 µM | > 100 µM | > 100 µM | > 100 µM | > 100 µM | > 100 µM | > 100 µM | > 100 µM | > 100 µM | > 100 µM | > 100 µM | > 100 µM | > 100 µM | > 100 µM | > 100 µM |
| N#Cc1c(O)c(N=Nc2ccc(Cl)cc2)c(=O)n2c1[nH]c1ccccc12 | > 100 µM | 65.3 µM | > 100 µM | > 100 µM | > 100 µM | > 100 µM | > 100 µM | > 100 µM | > 100 µM | > 100 µM | > 100 µM | > 100 µM | > 100 µM | > 100 µM | 80.8 µM | > 100 µM | > 100 µM | > 100 µM | 85.5 µM | > 100 µM |
| CC1=CC(C)C(C)N(CCNS(=O)(=O)c2ccc(C)cc2)c2ccccc21 (centres undefined) | 20.7 µM | 27 µM | 18.9 µM | 37.3 µM | 22.3 µM | > 31.6 µM | 30.2 µM | > 31.6 µM | 29.2 µM | > 82.8 µM | 23 µM | 22.8 µM | 24.2 µM | 27.5 µM | 17.1 µM | 29.5 µM | > 31.6 µM | 31.7 µM | 22.3 µM | 22.3 µM |
| COc1cc(Nc2nnc3n2S(=O)(=O)c2cc(C)c(Cl)cc2S3)cc(OC)c1 | 66.9 µM | 26.7 µM | > 100 µM | > 100 µM | 44.5 µM | > 100 µM | > 100 µM | > 100 µM | 16.7 µM | 81.3 µM | 23.1 µM | 49.7 µM | 74.5 µM | > 100 µM | 28.2 µM | > 100 µM | 77.6 µM | 22.1 µM | 95.7 µM | 24.4 µM |
| CC(C)CC(NC(=O)C(Cc1ccccc1)NC(=O)C(Cc1c[nH]c2ccccc12)NC(=O)CNC(=O)C(N)Cc1ccc(O)cc1)C(=O)O (centres undefined) (H-YGWFL-OH; configuration not given here) | > 100 µM | > 100 µM | > 100 µM | 57.4 µM | 72.9 µM | 73.6 µM | 60.2 µM | > 100 µM | > 100 µM | > 100 µM | 72.3 µM | 60.9 µM | > 100 µM | – | 57 µM | > 100 µM | > 100 µM | > 100 µM | 57.4 µM | > 100 µM |
| Cc1sc(C)c2c1C(=O)CC2N (centres undefined) | 98 µM | > 100 µM | 53.6 µM | > 46.4 µM | > 83 µM | > 100 µM | 35.1 µM | > 58.3 µM | 31.2 µM | 33.5 µM | 28.4 µM | 22.9 µM | 57 µM | > 56.1 µM | 32.8 µM | > 100 µM | > 100 µM | 43.7 µM | 49.2 µM | > 75.6 µM |
